“And” between values parts separate entries of the source, which are not always exact repeats. Equal entries are not always repeated.
Details: Liquid, Transpiration method

N#CCCO [3-hydroxypropanenitrile]
Details	vapor or sublimation pressure
306.3 K	0.01564 kPa
311.3 K	0.02299 kPa
314.3 K	0.02755 kPa
317.3 K	0.03639 kPa
318.6 K	0.03759 kPa
321.4 K	0.04504 kPa
321.7 K	0.04955 kPa
323.3 K	0.05382 kPa
325.4 K	0.06297 kPa
326.3 K	0.06361 kPa
328.6 K	0.07507 kPa
331.4 K	0.08563 kPa and 0.09147 kPa
333.4 K	0.1054 kPa
336.3 K	0.1286 kPa
336.4 K	0.1232 kPa
338.5 K	0.1442 kPa
340.4 K	0.1598 kPa
341.5 K	0.1816 kPa
343.4 K	0.2025 kPa
346.6 K	0.2592 kPa
351.7 K	0.3404 kPa
356.8 K	0.4425 kPa
361.8 K	0.5765 kPa
